Experimental data from patent US20250019379A1, “NEW CRYSTAL FORM OF COMPOUND, AND PREPARATION METHOD THEREFOR AND USE THEREOF” (E-nitiate Biopharmaceuticals (Hangzhou) Co., Ltd, priority 2021, published 2025).
Values joined by “and” are separate entries in the source; they are usually repeats but may differ in a detail not shown here. Equal entries are not always repeated. Marks after values point to notes of the source that are not given here.

How the values were obtained:
psoriasis animal model = assay: Psoriasis animal model (imiquimod cream induced); assay type: in vivo, C57/BL 6J mice; details: 30 mg/kg oral twice a day
Source text: C57/BL 6J mice, 75, female, 7-8 weeks old, weight 18 g-20 g. The animals were from Zhejiang Weitong Lihua Experimental Animal Technology Co., Ltd. (SCXK (Zhejiang) 2019-0001), experimental animal production certificate number 20210107Abzz0619000247; experimental animal use license number: SYXK (Shanghai) 2020-0001 (Via Biotechnology (Shanghai Co., Ltd).
Modeling and administration method: Use depilatory cream to remove hair from an area of about 2 cm×3 cm on the back of each animal. Control the application time of depilatory cream within 2 minutes. Wash the depilated area with warm water, wash off the depilatory agent, and use immediately. Dry the animal's hair with a hair dryer, and place the animal on a constant-temperature electric blanket at 37° C. for 1 h-2 h. After the animal moves freely, it is placed in a cage for normal rearing and recovery for 1 day (if any animal has red, swollen and damaged skin after hair removal, remove it). On the second day, 54 animals with normal skin were selected and randomly grouped according to body weight, with 9 animals in each group, a total of 6 groups. Each animal in the G2-G6 group was evenly applied with 60 mg (60 μL) of 5 wt % imiquimod cream (Aldara) on the back every day for seven consecutive days.
Skin thickness (double-layer): Use a vernier caliper to measure the double-layer thickness of the back skin before drug administration and modeling, and on days 1, 3, 5, and 7 after drug administration.
PASI score: The condition score refers to the clinical PASI scoring standard, and scores three indicators: erythema, scale, and thickness. The total score is 12 points. The scoring standards are as follows:
Erythema: 0 points, none; 1 points, slight: light red; 2 points, moderate: red; 3 points, significant: dark red; 4 points, very obvious: extremely deep red.
Scaling: 0 points, none; 1 point, slight: there are scales on part of the epidermis, mainly fine scales; 2 points, moderate: most of the skin surface is completely or incompletely covered with scales, in a flaky form; 3 points, Significant: almost all skin is covered with scales, and the scales are thick and layered; 4 points, very obvious: all the skin is covered with scales, and the scales are thick and layered.
Plaque thickening degree: 0 points, none: flush with normal skin; 1 points, slight: slightly higher than the skin surface: 2 points, moderate: moderately raised, with round or sloped plaque edges; 3 points, obvious Score: The plaque is hypertrophic and the bulge is obvious; 4 points, very significant: it is highly thickened and the bulge is very obvious.
Skin proliferation inhibition rate (%)=1−[(skin thickness of the treatment group on the 7th day−skin thickness of the blank control group on the 7th day)/skin thickness of the negative control group on the 7th day−skin thickness of the blank control group on the 7th day)]%.
All data are expressed as Mean t SEM. The statistical analysis software SPSS23.0 was used to conduct normal distribution and homogeneity of variance tests on the data. Based on the results, the single-factor analysis of variance method was selected and the homogeneity of variance test was selected based on the results. *P<0.05 will be considered a statistically significant difference.

[1] = test system: atopic dermatitis animal model; assay: Atopic dermatitis animal model (dinitrochlorobenzene induced); assay type: in vivo, BALB/C mice; details: for Inhibition rate of auricular thickening / Inhibition rate of skin thickening: 10th day of treatment
Source text: BALB/C mice, 55 pieces, female, were 6 weeks old at the time of purchase and 8 weeks old at the time of experiment, weighing 18 g-20 g. The animals were from Shanghai Lingchang Biotechnology Co, Ltd (SCXK (Shanghai) 2018-0003), experimental animal production certificate number 20180003012342: experimental animal use license number; SYXK(Shanghai)2020-0001 (Via Biotechnology (Shanghai) Ltd.).
Modeling and administration method; Use depilatory cream to remove the hair of an area of about 5 cm×2 cm from the top of the head to the back of each animal. The application time of the depilatory cream should be controlled within 2 minutes. Wash the depilated area with warm water and wash off the depilatory agent, immediately use a hair dryer to dry the animal's hair, and place the animal on a 37° C. constant-temperature electric blanket for 1 h-2 h. After the animal moves freely, place it in a breeding cage and recover for 1 day (if the animal's skin is red, swollen and damaged after hair removal, it will its elimination). On the second day, 42 animals with normal skin were selected and randomly divided into groups according to body weight, with 6 animals in each group, totaling 7 groups. Except for the G1 normal control group, each animal in the other groups was evenly smeared with 200 μL of 0.5 wt % dinitrochlorobenzene solution (the solvent was acetone and olive oil with a mass ratio of 3:1) on the back and auricle for three consecutive days every day. Induction (the first stage of induction), the second stage of induction started after 14 days, and was induced with 1 wt % dinitrochlorobenzene solution (the solvent was acetone and olive oil with a mass ratio of 3:1) every three days until the end of the experiment, start treatment and administration at the same time, and group administration is shown in Table 6.
Skin thickness (double layer): Use a vernier caliper to measure the double layer thickness of the back skin on the 1 day before modeling, and on the 14th, 17th, 20th, 23rd, 26th, and 28th days after modeling.
Auricle thickness: Use a vernier caliper to measure the thickness of the right auricle 1 day before modeling, and on days 14, 17, 20, 23, 26, and 28 after modeling.
AD-SI score: The condition score refers to the clinical SI scoring standard, and scores three indicators: skin color/erythema, scaly erythema, scaly/peeling/lichenification, thickening, and thickening/edema degree. The total score is 12 points. Scoring standard as follows:
Erythema/skin color: 0 points, none; 1 points, slight: light red; 2 points, moderate: red; 3 points, significant: dark red; 4 points, very obvious: extremely deep red.
Scaling/peeling/lichenification: 0 points, none; 1 point, slight: there are scales/peeling/lichenification on part of the epidermis, mainly subtle; 2 points, moderate: most of the skin surface is completely or incompletely covered with Scaling/peeling/lichenification, flaky; 3 points, significant: almost all skin is covered with scales/peeling/lichenification, and the scales/peeling/lichenification are thick and layered; 4 points, very obvious: all skin is covered with Scaling/peeling/lichenification, very thick and layered.
Thickening/edema: 0 points, none: flush with normal skin; 1 points, slight: slightly higher than the normal skin surface: 2 points, moderate: moderately raised, with round or sloped plaque edges: 3 points, obvious Score: The plaque is hypertrophic and the bulge is obvious; 4 points, very significant: it is highly thickened and the bulge is very obvious. Skin/auricle hyperplasia inhibition rate (%)=1−[(skin/auricle thickness of the treatment group−skin/auricle thickness of the blank control group)/skin/auricle thickness of the negative control group−skin/auricle of the blank control group thickness)]%.
All data are expressed as Mean±SD or Mean±SEM. Use the statistical analysis software SPSS23.0 to conduct normal distribution and homogeneity of variance tests on the data. […]

[2] = 30 mg/kg oral twice a day, Day 0
[3] = 30 mg/kg oral twice a day, Day 1
[4] = 30 mg/kg oral twice a day, Day 4
[5] = 30 mg/kg oral twice a day, Day 7
[6] = 30 mg/kg oral twice a day, Day 10
[7] = 10 mg/kg oral twice a day, Day 0
[8] = 10 mg/kg oral twice a day, Day 1
[9] = 10 mg/kg oral twice a day, Day 4
[10] = 10 mg/kg oral twice a day, Day 7
[11] = 10 mg/kg oral twice a day, Day 10

Structure (SMILES): C[C@@H]1CCN(C(=O)CC#N)C[C@@H]1N(C)c1ncnc2[nH]ccc12 [Tofacitinib, reference compound]
- Inhibition rate of skin thickening (psoriasis animal model; 7th day of treatment): 69.2%
- Average skin thickness (double layer) (psoriasis animal model; Day 0): 0.51 ± 0.01 mm
- PASI score (psoriasis animal model; Day 0): 0.0 points
- Average skin thickness (double layer) (psoriasis animal model; Day 1): 0.66 ± 0.02 mm
- PASI score (psoriasis animal model; Day 1): 0.0 points
- Average skin thickness (double layer) (psoriasis animal model; Day 3): 1.28 ± 0.09** mm
- PASI score (psoriasis animal model; Day 3): 4.6 ± 0.50 points
- Average skin thickness (double layer) (psoriasis animal model; Day 5): 1.09 ± 0.06*** mm
- PASI score (psoriasis animal model; Day 5): 4.9 ± 0.42*** points
- Average skin thickness (double layer) (psoriasis animal model; Day 7): 1.05 ± 0.04*** mm and 1.05 mm
- PASI score (psoriasis animal model; Day 7): 2.8 ± 0.43*** points
- Inhibition rate of auricular thickening ([1]; 30 mg/kg oral twice a day): 25.86%
- Inhibition rate of skin thickening ([1]; 30 mg/kg oral twice a day): 27.86%
- AD-SI score [1, 2]: 0.00 points
- Average auricle thickness [1, 2]: 0.19 ± 0.01 mm
- Average skin thickness (double layer) [1, 2]: 0.63 ± 0.03 mm
- AD-SI score [1, 3]: 0.00 points
- Average auricle thickness [1, 3]: 0.22 ± 0.01 mm
- Average skin thickness (double layer) [1, 3]: 0.99 ± 0.03 mm
- AD-SI score [1, 4]: 0.17 ± 0.41 points
- Average auricle thickness [1, 4]: 0.28 ± 0.01 mm
- Average skin thickness (double layer) [1, 4]: 1.13 ± 0.1 mm
- AD-SI score [1, 5]: 7.17 ± 0.98 points
- Average auricle thickness [1, 5]: 0.44 ± 0.03 mm
- Average skin thickness (double layer) [1, 5]: 1.78 ± 0.11 mm
- AD-SI score [1, 6]: 6.33 ± 1.37 points
- Average auricle thickness [1, 6]: 0.64 ± 0.05 mm and 0.64 mm
- Average skin thickness (double layer) [1, 6]: 2.08 ± 0.13 mm and 2.08 mm

Structure (SMILES): CC[C@@H]1CN(C(=O)NCC(F)(F)F)C[C@@H]1c1cnc2cnc3[nH]ccc3n12 [Upatinib, Upadacitinib, reference compound]
- Inhibition rate of auricular thickening ([1]; 10 mg/kg oral twice a day): 24.14%
- Inhibition rate of skin thickening ([1]; 10 mg/kg oral twice a day): 20.40%
- AD-SI score [1, 7]: 0.00 points
- Average auricle thickness [1, 7]: 0.20 ± 0.01 mm
- Average skin thickness (double layer) [1, 7]: 0.60 ± 0.02 mm
- AD-SI score [1, 8]: 0.00 points
- Average auricle thickness [1, 8]: 0.24 ± 0.01 mm
- Average skin thickness (double layer) [1, 8]: 0.89 ± 0.04 mm
- AD-SI score [1, 9]: 1.00 ± 0.00 points
- Average auricle thickness [1, 9]: 0.32 ± 0.03**^ mm
- Average skin thickness (double layer) [1, 9]: 1.07 ± 0.05 mm
- AD-SI score [1, 10]: 6.50 ± 1.05 points
- Average auricle thickness [1, 10]: 0.51 ± 0.05 mm
- Average skin thickness (double layer) [1, 10]: 2.06 ± 0.25 mm
- AD-SI score [1, 11]: 7.17 ± 1.47 points
- Average auricle thickness [1, 11]: 0.65 ± 0.03 mm and 0.65 mm
- Average skin thickness (double layer) [1, 11]: 2.23 ± 0.14 mm and 2.23 mm
